Calls of active or inactive are those of the source.
How the values were obtained:
[1] = biological target: DNA (cytosine-5)-methyltransferase 1 (Homo sapiens, UniProt P26358); assay: inhibition of DNA methylation by DNMT1 – biochemical, fluorescent molecular beacon, confirmation (AID 602386); type: functional
[2] = biological target: T1, Carboxy-terminal domain RNA polymerase II polypeptide A small phosphatase 1 (Homo sapiens, UniProt Q9GZU7); assay: CTDSP1 inhibitors, concentration-response, biochemical, absorbance readout, ultra-high-throughput screen actives (AID 540297); type: functional
T1 sequence (Q9GZU7 whole entry): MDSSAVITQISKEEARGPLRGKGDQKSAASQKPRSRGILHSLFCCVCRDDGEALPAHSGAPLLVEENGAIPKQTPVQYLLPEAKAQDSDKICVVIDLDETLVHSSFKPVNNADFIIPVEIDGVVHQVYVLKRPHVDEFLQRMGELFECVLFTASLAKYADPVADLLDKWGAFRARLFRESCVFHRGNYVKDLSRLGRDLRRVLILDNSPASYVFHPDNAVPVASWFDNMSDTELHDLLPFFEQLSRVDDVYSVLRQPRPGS

[3] = viability loss in THP-1 monocytes – THP-1 cells, cytotoxicity control for Vif-APOBEC3G degradation inhibitor project, dose response (AID 1117359); type: functional; settings: THP-1
Coagulation factor XII = biological target: T2, Coagulation factor XII (Homo sapiens, UniProt P00748); type: functional;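 further: activated factor XIIa alpha cleaving a fluorogenic AMC peptide substrate; inhibitor potency from loss of enzyme activity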
T2 sequence (P00748 whole entry): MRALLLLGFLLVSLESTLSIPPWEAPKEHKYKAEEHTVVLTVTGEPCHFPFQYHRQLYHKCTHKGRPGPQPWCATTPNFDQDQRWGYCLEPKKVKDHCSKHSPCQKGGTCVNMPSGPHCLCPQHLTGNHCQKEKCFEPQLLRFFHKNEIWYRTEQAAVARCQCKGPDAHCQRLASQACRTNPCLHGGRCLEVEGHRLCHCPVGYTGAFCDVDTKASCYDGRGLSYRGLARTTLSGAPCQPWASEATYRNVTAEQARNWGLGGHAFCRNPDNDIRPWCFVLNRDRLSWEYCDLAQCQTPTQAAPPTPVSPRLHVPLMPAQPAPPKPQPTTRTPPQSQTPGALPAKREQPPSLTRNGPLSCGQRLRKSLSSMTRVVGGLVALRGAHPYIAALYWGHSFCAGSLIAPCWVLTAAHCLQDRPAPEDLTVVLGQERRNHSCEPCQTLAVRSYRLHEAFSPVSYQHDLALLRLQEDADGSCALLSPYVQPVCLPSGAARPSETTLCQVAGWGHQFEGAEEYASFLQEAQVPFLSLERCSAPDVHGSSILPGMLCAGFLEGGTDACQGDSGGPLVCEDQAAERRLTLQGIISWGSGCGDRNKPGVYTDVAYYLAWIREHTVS

[4] = biological target: Ras and Rab interactor 1/Tyrosine-protein kinase ABL1 (Homo sapiens, UniProt P00519+Q13671); type: functional;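 further: biochemical TR-FRET dose-response test measuring inhibition of binding between Rin1 and Abl proteins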
Ras and Rab interactor 1/Tyrosine-protein kinase ABL1, sequence (P00519 whole entry): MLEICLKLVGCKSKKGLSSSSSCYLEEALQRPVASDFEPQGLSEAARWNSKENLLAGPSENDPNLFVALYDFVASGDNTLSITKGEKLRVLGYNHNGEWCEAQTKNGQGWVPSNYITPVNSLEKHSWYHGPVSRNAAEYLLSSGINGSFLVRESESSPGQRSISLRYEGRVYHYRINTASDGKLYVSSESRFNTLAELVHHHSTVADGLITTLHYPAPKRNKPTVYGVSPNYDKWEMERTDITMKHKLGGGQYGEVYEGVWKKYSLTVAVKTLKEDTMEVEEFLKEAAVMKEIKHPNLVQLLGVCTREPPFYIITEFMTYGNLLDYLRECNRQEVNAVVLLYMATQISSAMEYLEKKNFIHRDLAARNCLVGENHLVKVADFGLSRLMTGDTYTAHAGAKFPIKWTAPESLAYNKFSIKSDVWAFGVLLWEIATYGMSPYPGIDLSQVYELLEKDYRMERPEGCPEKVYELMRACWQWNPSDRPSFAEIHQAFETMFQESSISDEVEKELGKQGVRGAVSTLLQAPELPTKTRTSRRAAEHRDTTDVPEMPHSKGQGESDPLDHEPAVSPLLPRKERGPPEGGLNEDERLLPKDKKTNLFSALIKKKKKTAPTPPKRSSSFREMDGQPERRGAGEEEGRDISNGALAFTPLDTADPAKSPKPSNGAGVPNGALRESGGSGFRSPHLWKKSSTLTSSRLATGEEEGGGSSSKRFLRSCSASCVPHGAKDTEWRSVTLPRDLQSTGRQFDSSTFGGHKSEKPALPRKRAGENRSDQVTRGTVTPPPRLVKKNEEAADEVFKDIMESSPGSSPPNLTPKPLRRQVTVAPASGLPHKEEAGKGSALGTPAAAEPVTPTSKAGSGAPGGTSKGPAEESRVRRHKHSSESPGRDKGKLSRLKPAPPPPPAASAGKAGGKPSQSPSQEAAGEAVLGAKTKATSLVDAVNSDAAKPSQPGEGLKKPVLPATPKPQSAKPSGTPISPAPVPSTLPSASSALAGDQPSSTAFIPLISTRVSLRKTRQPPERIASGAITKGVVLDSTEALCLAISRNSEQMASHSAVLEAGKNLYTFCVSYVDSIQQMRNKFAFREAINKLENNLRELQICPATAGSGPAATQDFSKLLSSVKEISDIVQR
Ras and Rab interactor 1/Tyrosine-protein kinase ABL1, sequence (Q13671 whole entry): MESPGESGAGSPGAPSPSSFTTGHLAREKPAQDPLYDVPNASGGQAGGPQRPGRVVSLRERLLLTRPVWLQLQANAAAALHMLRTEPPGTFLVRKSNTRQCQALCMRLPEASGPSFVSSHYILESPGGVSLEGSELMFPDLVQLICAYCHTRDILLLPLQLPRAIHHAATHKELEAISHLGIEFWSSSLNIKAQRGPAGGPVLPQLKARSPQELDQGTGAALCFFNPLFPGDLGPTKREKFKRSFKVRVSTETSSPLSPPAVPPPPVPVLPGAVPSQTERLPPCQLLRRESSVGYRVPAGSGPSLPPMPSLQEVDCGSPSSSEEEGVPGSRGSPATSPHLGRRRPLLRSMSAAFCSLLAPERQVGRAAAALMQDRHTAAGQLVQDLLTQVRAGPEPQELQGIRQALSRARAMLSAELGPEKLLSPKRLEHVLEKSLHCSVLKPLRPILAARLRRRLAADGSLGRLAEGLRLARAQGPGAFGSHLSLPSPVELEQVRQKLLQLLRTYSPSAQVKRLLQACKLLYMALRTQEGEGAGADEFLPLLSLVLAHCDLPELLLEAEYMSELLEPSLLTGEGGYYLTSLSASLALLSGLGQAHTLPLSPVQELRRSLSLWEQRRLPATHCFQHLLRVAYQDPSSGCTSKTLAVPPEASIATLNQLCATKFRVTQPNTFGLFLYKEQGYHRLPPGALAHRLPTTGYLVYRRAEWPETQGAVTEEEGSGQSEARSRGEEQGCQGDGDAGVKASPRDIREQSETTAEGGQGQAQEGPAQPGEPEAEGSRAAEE

[5] = activation of miR-122 Renilla sensor silencing – cell-based, Huh7 psiCHECK-miR122, Renilla luciferase, cherry-picked, dose response (AID 651956); type: functional;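 further: huh7 hepatoma cells stably carrying a psiCHECK-2 miR-122 sensor plasmid; renilla luciferase signal reporting endogenous miR-122 activity after 48 h compound exposure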
[6] = biological target: T3, Long-chain-fatty-acid--AMP ligase FadD28 (Mycobacterium tuberculosis, UniProt P9WQ59); assay: Fluorescence polarization aasay to screen for inhibitors that compete for the binding of FadD28 to a bisubstrate Measured in Biochemical System Using Plate Reader - 2147-01_Inhibitor_Dose_CherryPick_Activity.; type: functional, Mycobacterium tuberculosis H37Rv
T3 sequence (P9WQ59 whole entry): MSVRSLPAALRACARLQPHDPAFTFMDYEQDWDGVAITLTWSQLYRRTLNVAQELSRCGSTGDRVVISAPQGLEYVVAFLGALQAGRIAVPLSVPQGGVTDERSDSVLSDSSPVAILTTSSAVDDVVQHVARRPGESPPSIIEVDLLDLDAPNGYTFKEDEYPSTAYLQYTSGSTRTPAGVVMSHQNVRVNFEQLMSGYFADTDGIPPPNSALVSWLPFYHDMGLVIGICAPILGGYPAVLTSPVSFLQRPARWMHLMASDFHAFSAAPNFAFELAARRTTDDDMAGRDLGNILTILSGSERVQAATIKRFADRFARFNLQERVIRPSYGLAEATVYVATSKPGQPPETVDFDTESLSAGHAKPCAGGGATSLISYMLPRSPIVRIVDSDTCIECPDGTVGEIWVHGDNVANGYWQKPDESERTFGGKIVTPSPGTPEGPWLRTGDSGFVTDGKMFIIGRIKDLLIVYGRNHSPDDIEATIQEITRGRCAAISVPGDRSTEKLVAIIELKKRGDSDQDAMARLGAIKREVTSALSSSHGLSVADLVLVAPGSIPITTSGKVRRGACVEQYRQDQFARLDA

HeLa = assay: ATP-based viability loss in HeLa cells – cell-based, CellTiter-Glo luminescence, cherry-pick samples, cytotoxicity control for MITF activator project, dose response (AID 540259); type: functional; settings: Homo sapiens
Cytochrome P450 2C19 = Cytochrome P450 2C19 (Homo sapiens, UniProt P33261); assay: Cytochrome panel assay with activity outcomes. Panel member name: p450-cyp2c19 Compounds with AC50 equal or less than 10 uM are considered active; type: functional; settings: read-out: AC50
Cytochrome P450 2C19, sequence (P33261 whole entry): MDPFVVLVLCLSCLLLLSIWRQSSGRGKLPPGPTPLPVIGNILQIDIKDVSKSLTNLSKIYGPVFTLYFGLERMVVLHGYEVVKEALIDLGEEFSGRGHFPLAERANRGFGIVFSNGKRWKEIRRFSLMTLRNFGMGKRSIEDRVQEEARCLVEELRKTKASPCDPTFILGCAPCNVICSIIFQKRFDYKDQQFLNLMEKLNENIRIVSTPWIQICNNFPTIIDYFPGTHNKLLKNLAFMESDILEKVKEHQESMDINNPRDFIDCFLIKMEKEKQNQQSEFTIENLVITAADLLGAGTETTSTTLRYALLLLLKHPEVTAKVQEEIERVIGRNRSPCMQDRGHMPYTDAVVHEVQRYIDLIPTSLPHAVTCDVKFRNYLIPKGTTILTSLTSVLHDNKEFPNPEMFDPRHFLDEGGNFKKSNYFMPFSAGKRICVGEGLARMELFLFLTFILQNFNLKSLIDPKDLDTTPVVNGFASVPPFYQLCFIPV

Cytochrome P450 2C9 = Cytochrome P450 2C9 (Homo sapiens, UniProt P11712)
Cytochrome P450 2C9, sequence (P11712 whole entry): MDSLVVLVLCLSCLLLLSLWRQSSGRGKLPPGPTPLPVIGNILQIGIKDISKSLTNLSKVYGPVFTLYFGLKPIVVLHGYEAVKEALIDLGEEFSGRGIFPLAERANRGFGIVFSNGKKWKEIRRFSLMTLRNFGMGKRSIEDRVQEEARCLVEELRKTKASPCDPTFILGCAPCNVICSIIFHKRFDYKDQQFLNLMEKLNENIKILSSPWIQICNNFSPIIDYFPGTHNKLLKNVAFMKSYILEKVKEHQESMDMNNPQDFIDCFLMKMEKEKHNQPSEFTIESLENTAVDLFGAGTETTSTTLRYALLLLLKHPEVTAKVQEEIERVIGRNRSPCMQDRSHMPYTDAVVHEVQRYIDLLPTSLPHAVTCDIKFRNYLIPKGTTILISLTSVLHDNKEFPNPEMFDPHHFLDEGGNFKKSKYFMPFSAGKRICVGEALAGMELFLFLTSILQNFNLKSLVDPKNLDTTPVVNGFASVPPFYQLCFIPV

Protein skinhead-1 = biological target: T4, Protein skinhead-1 (Caenorhabditis elegans, UniProt P34707); type: functional
T4 sequence (P34707 whole entry): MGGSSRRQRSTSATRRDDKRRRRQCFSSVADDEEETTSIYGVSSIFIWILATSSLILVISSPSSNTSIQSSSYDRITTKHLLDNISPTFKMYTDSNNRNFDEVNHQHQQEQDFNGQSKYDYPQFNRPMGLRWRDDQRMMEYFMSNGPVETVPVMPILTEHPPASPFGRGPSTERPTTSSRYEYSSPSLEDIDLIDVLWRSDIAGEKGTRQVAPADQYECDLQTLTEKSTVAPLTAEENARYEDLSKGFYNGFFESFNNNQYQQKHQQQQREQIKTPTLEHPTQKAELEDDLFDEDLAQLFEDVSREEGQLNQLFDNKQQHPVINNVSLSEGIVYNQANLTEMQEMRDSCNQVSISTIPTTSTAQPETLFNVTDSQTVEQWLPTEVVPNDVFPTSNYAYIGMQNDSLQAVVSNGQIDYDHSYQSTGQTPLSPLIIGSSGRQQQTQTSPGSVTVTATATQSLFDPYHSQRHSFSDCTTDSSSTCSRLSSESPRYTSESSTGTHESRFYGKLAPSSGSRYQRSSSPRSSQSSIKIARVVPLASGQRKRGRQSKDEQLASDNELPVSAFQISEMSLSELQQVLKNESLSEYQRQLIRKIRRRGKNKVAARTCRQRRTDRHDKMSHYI

Cytochrome P450 1A2 = biological target: T5, Cytochrome P450 1A2 (Homo sapiens, UniProt P05177);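 further: PubChem cytochrome P450 panel assay, CYP1A2 panel member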
T5 sequence (P05177 whole entry): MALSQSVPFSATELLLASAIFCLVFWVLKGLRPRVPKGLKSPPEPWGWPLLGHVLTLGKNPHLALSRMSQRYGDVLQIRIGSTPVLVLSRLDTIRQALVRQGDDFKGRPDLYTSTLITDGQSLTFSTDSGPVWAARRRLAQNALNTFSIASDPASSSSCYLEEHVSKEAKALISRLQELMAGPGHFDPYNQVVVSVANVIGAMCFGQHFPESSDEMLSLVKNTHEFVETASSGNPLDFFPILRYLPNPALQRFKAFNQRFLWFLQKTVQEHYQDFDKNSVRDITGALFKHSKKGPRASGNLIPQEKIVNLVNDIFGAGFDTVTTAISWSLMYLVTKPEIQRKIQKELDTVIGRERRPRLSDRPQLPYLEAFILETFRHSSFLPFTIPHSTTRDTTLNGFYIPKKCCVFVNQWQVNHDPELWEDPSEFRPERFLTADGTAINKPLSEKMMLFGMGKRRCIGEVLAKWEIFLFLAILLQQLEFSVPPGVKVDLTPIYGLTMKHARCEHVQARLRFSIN

[7] = biological target: Heat shock protein HSP 90-alpha (Homo sapiens, UniProt P07900); type: functional, organism-based
[8] = biological target: T6, Endoribonuclease toxin MazF (Escherichia coli K-12, UniProt P0AE70); assay: activation of MazEF endoribonuclease cleavage – biochemical, fluorescence, single-stranded RNA substrate, uHTS hits, dose response (AID 588481); type: functional
T6 sequence (P0AE70 whole entry): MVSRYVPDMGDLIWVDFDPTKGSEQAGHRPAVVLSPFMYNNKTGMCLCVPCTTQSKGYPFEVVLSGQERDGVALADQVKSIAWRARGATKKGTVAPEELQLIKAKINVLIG

[9] = biological target: T6, Endoribonuclease toxin MazF; assay: substrate-only fluorescence increase artefacts – biochemical, single-stranded RNase substrate, counter-screen for MazEF activator project, dose response (AID 588502); type: functional

DNA (cytosine-5)-methyltransferase 1, sequence (P26358 whole entry, the tested form may be a part): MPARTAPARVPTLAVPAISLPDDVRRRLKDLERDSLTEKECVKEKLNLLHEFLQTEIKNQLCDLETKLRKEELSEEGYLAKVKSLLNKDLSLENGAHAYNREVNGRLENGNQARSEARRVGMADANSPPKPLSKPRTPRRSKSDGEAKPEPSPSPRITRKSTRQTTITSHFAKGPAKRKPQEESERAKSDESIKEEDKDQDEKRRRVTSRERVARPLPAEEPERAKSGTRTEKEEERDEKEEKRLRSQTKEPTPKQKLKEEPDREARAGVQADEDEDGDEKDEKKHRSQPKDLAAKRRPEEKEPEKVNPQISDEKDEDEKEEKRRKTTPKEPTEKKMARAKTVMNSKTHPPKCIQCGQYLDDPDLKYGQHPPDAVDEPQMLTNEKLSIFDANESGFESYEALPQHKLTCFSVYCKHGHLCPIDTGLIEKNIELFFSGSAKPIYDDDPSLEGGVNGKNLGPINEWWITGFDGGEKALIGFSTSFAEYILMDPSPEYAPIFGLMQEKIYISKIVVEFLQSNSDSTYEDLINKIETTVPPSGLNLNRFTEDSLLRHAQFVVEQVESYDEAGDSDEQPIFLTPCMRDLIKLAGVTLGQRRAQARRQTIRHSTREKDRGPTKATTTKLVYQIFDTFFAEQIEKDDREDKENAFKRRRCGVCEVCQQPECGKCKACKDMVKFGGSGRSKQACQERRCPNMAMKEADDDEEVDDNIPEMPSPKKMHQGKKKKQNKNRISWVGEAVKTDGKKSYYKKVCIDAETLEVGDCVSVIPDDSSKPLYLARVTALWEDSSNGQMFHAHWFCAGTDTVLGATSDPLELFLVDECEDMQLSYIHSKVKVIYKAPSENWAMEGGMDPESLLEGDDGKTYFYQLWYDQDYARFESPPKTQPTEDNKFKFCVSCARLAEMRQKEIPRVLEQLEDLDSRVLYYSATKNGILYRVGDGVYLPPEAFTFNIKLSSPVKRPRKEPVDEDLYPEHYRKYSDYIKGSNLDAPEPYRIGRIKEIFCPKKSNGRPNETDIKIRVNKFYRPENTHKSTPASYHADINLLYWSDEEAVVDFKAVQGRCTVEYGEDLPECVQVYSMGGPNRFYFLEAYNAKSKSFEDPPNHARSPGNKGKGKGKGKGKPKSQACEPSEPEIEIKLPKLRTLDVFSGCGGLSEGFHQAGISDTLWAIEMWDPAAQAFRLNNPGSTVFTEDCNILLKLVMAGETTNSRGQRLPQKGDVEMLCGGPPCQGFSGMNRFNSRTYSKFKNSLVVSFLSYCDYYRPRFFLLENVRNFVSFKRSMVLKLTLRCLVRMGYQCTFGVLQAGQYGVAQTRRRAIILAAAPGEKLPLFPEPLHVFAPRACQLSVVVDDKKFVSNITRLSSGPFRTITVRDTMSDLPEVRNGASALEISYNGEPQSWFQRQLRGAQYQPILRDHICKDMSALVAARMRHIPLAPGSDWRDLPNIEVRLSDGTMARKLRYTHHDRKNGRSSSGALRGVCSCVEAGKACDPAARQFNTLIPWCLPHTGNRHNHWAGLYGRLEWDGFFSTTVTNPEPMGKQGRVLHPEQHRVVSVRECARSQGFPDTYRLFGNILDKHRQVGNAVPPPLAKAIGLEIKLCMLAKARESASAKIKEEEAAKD

For COc1ccc(S(=O)(=O)N2CCN(C(=O)c3cc4c(s3)CCC4)CC2)cc1, the IC50 [1] was 11.3 µM (active), the IC50 [2] was 1.61 µM (active) and the CC50 [3] was > 40 µM (active).
For COCCN(C(=O)C1CC1)c1nnc(-c2ccc(C)cc2)s1, the IC50 (Coagulation factor XII) was > 50 µM (inactive).
With COC(=O)c1cccc(NC(=O)c2ccc[n+]([O-])c2)c1 the IC50 [4] was 18 µM (inactive).
With COc1cccc(-c2csc(N3CCN(CC(=O)Nc4ccc5c(c4)OCO5)CC3)n2)c1 the AC50 [5] was 17.2 µM (active).
For CN(C)c1ccc(C(=S)N2CCN(c3ccc([N+](=O)[O-])cc3)CC2)cc1, the IC50 (Coagulation factor XII) was > 50 µM (inactive).
With O=C(O)c1[nH]c2ccccc2c1C(c1c(F)cccc1Cl)c1c(C(=O)O)[nH]c2ccccc12 the AC50 [6] was 69.9 µM (active).
For COc1ccc(NC(=O)CN(C)C(=O)CNC(=O)c2sc3ccccc3c2Cl)cc1, the AC50 (HeLa) was 41.6 µM (active).
With c1ccc(CCNc2nnnn2-c2ccccc2)cc1 the AC50 (Cytochrome P450 2C19) was 1.78 µM (inconclusive), the AC50 (Cytochrome P450 2C9) was 11.2 µM (inconclusive) and the AC50 [5] was 9.58 µM (active). The IC50 (Protein skinhead-1) was > 100 µM (inactive) and the AC50 (Cytochrome P450 1A2) was 2.51 µM (inconclusive).
With CCOC(=O)c1cc2cc(OCc3ccccc3)ccc2nc1C the AC50 [7] was 3.93 µM (active).
In the case of N#C/C(=C\C1=C(N2CCOCC2)C(=C/c2cccc([N+](=O)[O-])c2)/CC1)C(=O)Nc1ccccc1F, the EC50 [8] is reported as > 99 µM (inactive) and the EC50 [9] is reported as > 99 µM (inactive).
In the case of CSc1ccc(-c2nnn(Cc3ccc(C)cc3)n2)cc1, the AC50 (HeLa) is reported as 98 µM (active).

— ChEMBL document CHEMBL1201862, “PubChem BioAssay data set” (2004)
